Measured values: publication PMC4979527, “Post-translational allosteric activation of the P2X7 receptor through glycosaminoglycan chains of CD44 proteoglycans” (Cell Death Discovery, 2015)
“Also recorded” adds a separate entry of the source.

Tests used:
[1] = target: T1, P2X7 receptor (Cricetulus griseus, UniProt A0A9J7FWH6); assay: Cytoplasmic Ca2+ influx (Fluo-4, Flex Station 3) in wild-type CHO-K1 cells; type: cell-based, Chinese hamster; conditions: for Increase of Ca2+cyt response by heparin pre-treatment: heparin pre-incubation 5 min (10-100 μM)
T1 sequence (A0A9J7FWH6 1-593): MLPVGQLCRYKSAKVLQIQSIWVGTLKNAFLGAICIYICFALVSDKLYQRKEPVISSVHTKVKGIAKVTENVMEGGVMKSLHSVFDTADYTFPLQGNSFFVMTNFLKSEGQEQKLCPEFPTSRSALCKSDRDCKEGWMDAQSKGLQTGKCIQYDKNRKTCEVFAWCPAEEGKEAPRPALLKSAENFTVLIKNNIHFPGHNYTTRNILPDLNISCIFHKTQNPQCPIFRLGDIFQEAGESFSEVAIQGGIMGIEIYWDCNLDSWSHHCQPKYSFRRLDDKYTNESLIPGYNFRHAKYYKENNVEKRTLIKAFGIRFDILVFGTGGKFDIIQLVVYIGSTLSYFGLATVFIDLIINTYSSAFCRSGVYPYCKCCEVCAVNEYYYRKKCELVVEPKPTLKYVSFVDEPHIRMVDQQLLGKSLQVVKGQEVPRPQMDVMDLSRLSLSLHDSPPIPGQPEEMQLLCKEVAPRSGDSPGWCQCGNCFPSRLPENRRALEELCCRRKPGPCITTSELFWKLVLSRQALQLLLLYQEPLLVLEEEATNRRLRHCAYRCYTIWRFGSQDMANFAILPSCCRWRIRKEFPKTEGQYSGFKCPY
Procedure: (§1) Cytoplasmic Ca^2+ influx, [Ca^2+]cyt, measurements were monitored through changes of the Fluo-4 fluorescence intensity in real time using the Flex Station 3 microplate reader system. CHO-K1 (●-●) and CHO-745 ([…]-[…]) cells were seeded onto black 96-well plates (10^4 cells/well). Then, the cells were incubated with Fluo-4 for 1 h at 37 °C. […] The data represent the mean±S.E.M. (N=6).
(§2) Subsequently, the cells were incubated with Fluo-4 Direct Calcium Assay reagent for 1 h at 37 °C, according to the manufacturer’s instructions. The samples were stimulated with different agonists, and the fluorescence was quantified using a Flex Station 3 microplate reader (Molecular Devices, Sunnyvale, CA, USA). The Fluo-4 was excited at 490 nm and the emission was detected at 525 nm.[57]

[2] = test system: P2 receptors; assay: Cytoplasmic Ca2+ influx (Fluo-4) in CHO cells, both lines; type: cell-based, Chinese hamster; conditions: for Intracellular Ca2+ increase on agonist addition: CHO cells, concentration-response curves; for Modulation of BzATP-stimulated Ca2+ influx by divalent cation: high concentration of cation (10 mM MgCl2; Cu2+ vs 100 μM BzATP), CHO-K1 and CHO-745
Procedure: as §1, §2

[3] = target: T1, P2X7 receptor; assay: Cytoplasmic Ca2+ influx (Fluo-4, Flex Station 3) in mutant CHO-745 cells defective in GAGs; type: cell-based, Chinese hamster; conditions: for Increase of Ca2+ response by heparin pre-treatment: heparin pre-incubation 5 min (10-100 μM)
Procedure: as §1, §2

[4] = test system: CHO-K1 and CHO-745 cells; assay: Cell viability (MTT) and cell death (annexin V-APC/7-AAD) assay; type: cell-based; conditions: 24 h; for Morphology of CHO cultures (phase contrast microscopy): 4 mM ATP or 1 mM BzATP; for Cell death (MTT assay): high concentration (ATP >1 mM, BzATP >500 μM), both lines
Procedure: The viability of CHO cell lines was determined using the MTT assay.[58] […] The medium was removed, 100 μl of MTT (1 mg/ml) was added to each well and the cells were incubated again at 37 °C for 4 h. The supernatant was removed and 200 μl/well of DMSO was added to solubilize the formazan crystals formed. The absorbance was read at 570 nm using a microplate reader, and the cell viability was determined using the standard reduction of the MTT. The results were expressed relative to control cell viability (100%).
Cell death was investigated using annexin V-APC/7-AAD double staining and was analyzed through flow cytometry.[57],[59] […] The suspensions were transferred to tubes, centrifuged and resuspended with annexin V-APC and 7-AAD according to the manufacturer’s instructions. The cells were incubated at room temperature for 30 min, and the viable, apoptotic or necrotic cell populations were evaluated through flow cytometry. The data were collected using a FACSCalibur flow cytometer (Becton–Dickinson) and CellQuest software (Becton–Dickinson), followed by analysis using FlowJo software (Tree Star). […] The results were calculated as the percentage of cell death compared with the control.

[5] = target: T1, P2X7 receptor; conditions: 4 mM ATP
Procedure: P2X7 pore formation was functionality examined in CHO cells by analyzing PI uptake using a FACSCalibur flow cytometer (Becton–Dickinson). The cells were seeded onto six-well plates (10^6 cells/well) and maintained for 48 h at 37 °C under an atmosphere of 5% (v/v) CO2. Subsequently, the cells were harvested using 10 mM EDTA/PBS and adjusted to a concentration of 10^6 cells per tube. The samples were incubated with 5 μM of PI at a final volume of 200 μl/well in fresh serum-free medium F12 for 15 min, followed by the addition of 4 mM ATP and incubation at 37 °C for 30, 60 and 120 min, respectively. The intensity of dye uptake was immediately determined. A total of 10 000 events were collected for each sample.[60],[61]

[6] = CHO-K1, in presence of 10 mM Mg2+ (MgCl2)
[7] = CHO-745, in presence of 10 mM Mg2+ (MgCl2)

Nc1ncnc2c1ncn2[C@@H]1O[C@H](COP(=O)(O)OP(=O)(O)OP(=O)(O)O)[C@@H](OC(=O)c2ccc(C(=O)c3ccccc3)cc2)[C@H]1O (relative stereo) [BzATP, 2′(3′)-O-(4-benzoylbenzoyl)adenosine 5′-triphosphate]
Emax ([1]; CHO-K1, Ca2+ influx): 275±8 URF
Hill coefficient ([1]; CHO-K1, Ca2+ influx): 1.0±0.1
Emax [1, 6]: 153±6 URF
Intracellular Ca2+ increase on agonist addition [2]: promoted Ca^2+ increase
Emax ([3]; CHO-745, Ca2+ influx): 136±6 URF
Hill coefficient ([3]; CHO-745, Ca2+ influx): 1.8±0.2
Emax [3, 7]: 119±10 URF
Hill coefficient [3, 7]: 2.8±0.3
Morphology of CHO cultures (phase contrast microscopy) [4]: increased morphological changes and cell detachment
Cell death (MTT assay) [4]: promoted cell death

O=c1ccn([C@@H]2O[C@H](COP(=O)(O)OP(=O)(O)OP(=O)(O)O)[C@@H](O)[C@H]2O)c(=O)[nH]1 [UTP, uridine 5′-triphosphate]
Intracellular Ca2+ increase on agonist addition [2]: promoted Ca^2+ increase

Nc1ncnc2c1ncn2C1OC(COP(=O)(O)CP(=O)(O)OP(=O)(O)O)C(O)C1O (stereo not drawn) [αβ-MeATP, α,β-methyleneadenosine 5′-triphosphate]
Intracellular Ca2+ increase on agonist addition [2]: did not increase intracellular Ca^2+

heparin
Increase of Ca2+cyt response by heparin pre-treatment ([1]; CHO-K1, 10 μM ATP): 120%
Potentiation of Ca2+ influx ([1]; CHO-K1, 100 μM heparin, 3 μM BzATP): 2.2 fold
Increase of Ca2+cyt response by heparin pre-treatment ([1]; CHO-K1, 1 mM ATP): 78%
Effect of heparin on Ca2+ influx at saturating agonist ([2]; BzATP >100 μM or ATP >4 mM): induced no further increase in Ca^2+ influx
P2X7 stimulation by heparin alone ([2]; absence of ATP or BzATP, highest heparin concentration): did not elicit P2X7 stimulation; also recorded: did not elicit discernible P2X7 activation
Increase of Ca2+ response by heparin pre-treatment ([3]; CHO-745, 10 μM ATP): 40%
Increase of Ca2+ response by heparin pre-treatment ([3]; CHO-745, 1 mM ATP): 50%

O=[N+]([O-])c1ccccc1O[C@@H]1OC[C@@H](O)[C@H](O)[C@H]1O [xylosides, o-nitrophenyl-β-D-xylopyranoside]
Inhibition of response induced through BzATP-gated P2X7 ([1]; CHO-K1, 2 mM xyloside pre-treatment (120 h), 3 μM BzATP): 82%
Inhibition of response induced through ATP-gated P2X7 ([1]; CHO-K1, 2 mM xyloside pre-treatment (120 h), 10 μM ATP): 55%
Effect on P2X7 agonist response ([3]; CHO-745, 2 mM xyloside pre-treatment): did not block the P2X7 agonist response

Nc1ncnc2c1ncn2[C@@H]1O[C@H](COP(=O)(O)OP(=O)(O)O)[C@@H](O)[C@H]1O [ADP, adenosine 5′-diphosphate]
Intracellular Ca2+ increase on agonist addition [2]: promoted Ca^2+ increase

O=c1ccn([C@@H]2O[C@H](COP(=O)(O)OP(=O)(O)O)[C@@H](O)[C@H]2O)c(=O)[nH]1 [UDP, uridine 5′-diphosphate]
Intracellular Ca2+ increase on agonist addition [2]: promoted Ca^2+ increase

Nc1ncnc2c1ncn2C1OC(COP(=O)(O)OP(=O)(O)CP(=O)(O)O)C(O)C1O (stereo not drawn) [βγ-MeATP, β,γ-methyleneadenosine 5′-triphosphate]
Intracellular Ca2+ increase on agonist addition [2]: did not increase intracellular Ca^2+

Nc1ncnc2c1ncn2[C@@H]1O[C@H](COP(=O)(O)OP(=O)(O)OP(=O)(O)O)[C@@H](OC(=O)c2ccc(C(=O)c3ccccc3)cc2)[C@H]1O (relative stereo) [BzATP+Mg^2+]
Emax [1, 6]: 153±6 URF
Hill coefficient [1, 6]: 1.5±0.1
Emax [3, 7]: 119±10 URF
Hill coefficient [3, 7]: 2.8±0.3

Nc1ncnc2c1ncn2[C@@H](C=O)O[C@@H](C=O)COP(=O)(O)OP(=O)(O)OP(=O)(O)O [oxATP, adenosine 5′-triphosphate periodate oxidized]
Effect of antagonist on BzATP-evoked Ca2+ influx ([1]; CHO-K1, 300 μM oxATP, 100 μM BzATP): abolished the effect of BzATP
Effect of antagonist on BzATP-evoked Ca2+ influx ([3]; CHO-745, 300 μM oxATP, 100 μM BzATP): abolished the effect of BzATP

[Cu+2] [Cu^2+]
Modulation of BzATP-stimulated Ca2+ influx by divalent cation [2]: negatively modulated

[Na+].[O-][Cl+2]([O-])[O-] [chlorate, sodium chlorate]
Inhibition of total P2X7 agonist (ATP or BzATP) response ([1]; CHO-K1, pre-treatment 20 or 50 mM sodium chlorate, 24 h): ~ 35%
Effect on P2X7 agonist response ([3]; CHO-745, pre-treatment 20 or 50 mM sodium chlorate): did not block the P2X7 agonist response

[Mg+2] [Mg^2+]
Modulation of BzATP-stimulated Ca2+ influx by divalent cation [2]: negatively modulated

CSc1nc(N)c2ncn([C@@H]3O[C@H](COP(=O)(O)OP(=O)(O)OP(=O)(O)O)[C@@H](O)[C@H]3O)c2n1 [2-MeSATP, 2-(methylthio)adenosine 5′-triphosphate]
Intracellular Ca2+ increase on agonist addition [2]: did not increase intracellular Ca^2+

Nc1ncnc2c1ncn2[C@@H]1O[C@H](COP(=O)(O)OP(=O)(O)OP(=O)(O)O)[C@@H](O)[C@H]1O [ATP, adenosine 5′-triphosphate]
Emax ([1]; CHO-K1, Ca2+ influx): 258±10 URF
Hill coefficient ([1]; CHO-K1, Ca2+ influx): 0.9±0.1
Intracellular Ca2+ increase on agonist addition [2]: promoted Ca^2+ increase
Emax ([3]; CHO-745, Ca2+ influx): 97±7 URF
Hill coefficient ([3]; CHO-745, Ca2+ influx): 2.0±0.3
Sensitivity to PI accumulation, CHO-745 less sensitive than CHO-K1 [5]: 2.5 fold
Propidium iodide (PI) uptake ([5]; CHO cells, after 30 min at 37 °C): induced the time-dependent uptake of propidium iodide
Morphology of CHO cultures (phase contrast microscopy) [4]: increased morphological changes and cell detachment
Cell death (MTT assay) [4]: promoted cell death
